Test results reported in article PMC9890698 (BMC Biology, 2023).
“And” between values parts separate entries of the source, which are not always exact repeats. Equal entries are not always repeated.

Columns and labels:
Human P2Y1-R = molecular target: T1, Human P2Y1-R (Homo sapiens, UniProt P47900); test: β-arrestin 2 recruitment BRET1 assay (β-arrestin 2-RLuc / P2Y1-R-Venus) in HEK293T cells; type: cell-based; settings: for b-arrestin 2 signaling, Ligand-modulated BRET (% of maximum MRS2179 mean value): Figure 4b, individual replicates
T1 construct: expressed in transfected cells; host or cells: HEK293T/17

[1] = tested on: washed human platelets (P2Y1-R/Gαq signaling); test: IP1 accumulation assay (HTRF) in washed human platelets; type: cell-based; settings: washed human platelets, ADP 100 μM, antagonists 10 μM, Gq inhibitor 100 nM, 2 h, apyrase 0.02 U/mL, result in words
In short: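 Washed platelets (3.10^6 per well, pH 7.4 Tyrode's with 1 mM CaCl2, pre-rested with apyrase and 10 μM indomethacin) were exposed to compounds for 30 min or 2 h at 37 °C with 50 mM LiCl. IP1 was measured by HTRF competitive immunoassay (665/620 nm ratio) and converted via standard curve.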

[2] = β-Arrestin 2 signaling, Fig. 4b, 15 min

T1 sequence (P47900 whole entry): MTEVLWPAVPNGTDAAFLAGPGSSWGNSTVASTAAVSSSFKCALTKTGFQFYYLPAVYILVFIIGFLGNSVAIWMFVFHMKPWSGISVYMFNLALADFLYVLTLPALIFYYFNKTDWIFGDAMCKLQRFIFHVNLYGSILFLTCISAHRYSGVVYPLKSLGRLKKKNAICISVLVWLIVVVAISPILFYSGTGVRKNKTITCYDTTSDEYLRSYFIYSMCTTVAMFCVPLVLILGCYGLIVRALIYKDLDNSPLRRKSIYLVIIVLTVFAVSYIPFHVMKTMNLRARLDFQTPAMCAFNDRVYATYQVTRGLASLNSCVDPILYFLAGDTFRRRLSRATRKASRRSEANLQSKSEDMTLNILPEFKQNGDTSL

CNc1nc(Cl)nc2c1ncn2[C@H]1CC(OP(=O)(O)O)[C@]2(COP(=O)(O)O)C[C@H]12 (stereo in doubt) [MRS2279]
b-arrestin 2 signaling, Ligand-modulated BRET (% of maximum MRS2179 mean value) (Human P2Y1-R; [Ligand] 1.00E-04 M): -69.6106 % of maximum MRS2179 mean value and -105.156 % of maximum MRS2179 mean value and -85.2747 % of maximum MRS2179 mean value and -86.0383 % of maximum MRS2179 mean value and -102.622 % of maximum MRS2179 mean value
b-arrestin 2 signaling, Ligand-modulated BRET (% of maximum MRS2179 mean value) (Human P2Y1-R; [Ligand] 1.00E-05 M): -58.9493 % of maximum MRS2179 mean value and -35.292 % of maximum MRS2179 mean value and -0.8674 % of maximum MRS2179 mean value and -67.8538 % of maximum MRS2179 mean value and -74.7757 % of maximum MRS2179 mean value
b-arrestin 2 signaling, Ligand-modulated BRET (% of maximum MRS2179 mean value) (Human P2Y1-R; [Ligand] 1.00E-06 M): -39.831 % of maximum MRS2179 mean value and -16.8165 % of maximum MRS2179 mean value and 4.878 % of maximum MRS2179 mean value and -40.0637 % of maximum MRS2179 mean value and -56.9245 % of maximum MRS2179 mean value
b-arrestin 2 signaling, Ligand-modulated BRET (% of maximum MRS2179 mean value) (Human P2Y1-R; [Ligand] 1.00E-07 M): -39.6457 % of maximum MRS2179 mean value and -31.8109 % of maximum MRS2179 mean value and -14.3137 % of maximum MRS2179 mean value and -31.2635 % of maximum MRS2179 mean value and -51.8509 % of maximum MRS2179 mean value
b-arrestin 2 signaling, Ligand-modulated BRET (% of maximum MRS2179 mean value) (Human P2Y1-R; [Ligand] 1.00E-08 M): -22.0748 % of maximum MRS2179 mean value and -36.9002 % of maximum MRS2179 mean value and -1.913 % of maximum MRS2179 mean value and -12.8092 % of maximum MRS2179 mean value and -19.8439 % of maximum MRS2179 mean value
b-arrestin 2 signaling, Ligand-modulated BRET (% of maximum MRS2179 mean value) (Human P2Y1-R; [Ligand] 1.00E-09 M): -17.6957 % of maximum MRS2179 mean value and -18.0324 % of maximum MRS2179 mean value and -16.7903 % of maximum MRS2179 mean value and 1.141 % of maximum MRS2179 mean value and 5.256 % of maximum MRS2179 mean value
b-arrestin 2 signaling, Ligand-modulated BRET (% of maximum MRS2179 mean value) (Human P2Y1-R; [Ligand] 1.00E-10 M): -24.7041 % of maximum MRS2179 mean value and -19.9635 % of maximum MRS2179 mean value and -11.9373 % of maximum MRS2179 mean value and -22.7633 % of maximum MRS2179 mean value and -19.9712 % of maximum MRS2179 mean value
Effect on β-arrestin 2 recruitment / BRET signal between P2Y1-R-Venus and β-arrestin 2-RLuc (Human P2Y1-R; HEK293T cells, high P2Y1-R expression, result in words): behaved as inverse agonists
EC50 (Human P2Y1-R; [2]): 19.4 µM
pEC50 ± s.e.m. (Human P2Y1-R; [2]): 4.712 ± 0.2838
Effect on IP1 levels [1]: inverse agonist efficacy
